The record followed here is patent US20250109140A1, “5-[5-(PIPERIDIN-4-YL)THIENO[3,2-C]PYRAZOL-2-YL]INDAZOLE DERIVATIVES AND RELATED COMPOUNDS AS MODULATORS FOR SPLICING NUCLEIC ACIDS AND FOR THE TREATMENT OF PROLIFERATIVE DISEASES” (REMIX THERAPUTICS INC., priority 2022, published 2025).

Molecules are shown by their SMILES. Structures can show the parent of a compound that is named as a salt. Where two headings read alike, the source gives them in different places.

Common to all, as to format: cell-based
Assay [1] concerns Target C mRNA. As to the kind of experiment: Splicing RT-qPCR gene panel, Target C canonical junction (CJ) mRNA. The conditions noted are these: Homo sapiens; Table 8; larger gene panel, decrease in CJ mRNA levels. How it is done:
(§1) Compounds described herein were used to modulate RNA transcript abundance in cells. The expression of a target mRNA was measured by detecting the formation of an exon-exon junction in the canonical transcript (CJ). A compound mediated exon-inclusion event was detected by observing an increase in formation of a new junction with an alternative exon (AJ). Real-time qPCR assays were used to detect these splicing switches and interrogate the potency of various compounds towards different target genes. A high-throughput real time quantitative PCR (RT-qPCR) assay was developed to measure these two isoforms of the mRNA (CJ and AJ) for exemplary genes, such as HTT, SMN2, and MYB, together with a control housekeeping gene, GAPDH or GUSB or PPIA, used for normalization. Briefly, the A673 or K562 cell line was treated with various compounds described herein (e.g., compounds of Formula (I)). After treatment, the levels of the HTT, MYB, or SMN2 mRNA targets were determined from each sample of cell lysate by cDNA synthesis followed by qPCR.
(§2) The A673 cell line was cultured in DMEM with 10% FBS. Cells were diluted with full growth media and plated in a 96-well plate (15,000 cells in 100 ul media per well). The plate was incubated at 37° C. with 5% CO2 for 24 hours to allow cells to adhere. An 11-point 3-fold serial dilution of the compounds was made in DMSO then diluted in media in an intermediate plate. Compounds were transferred from the intermediate plate to the cell plate with the top dose at a final concentration of 10 uM in the well. Final DMSO concentration was kept at or below 0.25%. The cell plate was returned to the incubator at 37° C. with 5% CO2 for an additional 24 hours.
(§3) The K562 cell line was cultured in IMDM with 10% FBS. For K562, cells were diluted with full growth media and plated in either a 96-well plate (50,000 cells in 50 uL media per well) or a 384-well plate (8,000-40,000 cells in 45 uL media per well). An 11-point 3-fold serial dilution of the compounds were made in DMSO then diluted in media in an intermediate plate. Compound was transferred from the intermediate plate to the cell plate with the top dose at a final concentration of 10 uM in the well. Final DMSO concentration was kept at or below 0.25%. Final volume was 100 uL for 96-well plate and 50 uL for 384-well plate. The cell plate was then placed in an incubator at 37° C. with 5% CO2 for 24 hours.
(§4) The cells were then gently washed with 50 uL-100 uL cold PBS before proceeding to addition of lysis buffer. 30 uL-50 uL of room temperature lysis buffer with DNAse I (and optionally RNAsin) was added to each well. Cells were shaken/mixed thoroughly at room temperature for 5-10 minutes for lysis to take place and then 3 uL-5 uL of room temperature stop solution was added and wells were shaken/mixed again. After 2-5 minutes, the cell lysate plate was transferred to ice for RT-qPCR reaction setup. The lysates could also be frozen at-80° C. for later use.
(§5) In some cases, a direct lysis buffer was used. An appropriate volume of 3× lysis buffer (10 mM Tris, 150 mM NaCl, 1.5%-2.5% Igepal and 0.1-1 U/uL RNAsin, pH 7.4) was directly added to either K562 or A673 cells in media and mixed by pipetting 3 times. The plates were then incubated at room temperature with shaking/rocking for 20-50 minutes to allow for lysis to take place. After this time, the cell lysate plate was transferred to ice to set up for the RT-qPCR reactions. The lysates could also be frozen at −80° C. for later use.
(§6) To set up 10 uL RT-qPCR reactions, cell lysates were transferred to 384-well qPCR plates containing the master mix according to the table below. The plates were sealed, gently vortexed, and spun down before the run. The volumes were adjusted accordingly in some instances where the reaction was carried in 20 μL. The table below summarizes the components of the RT-qPCR reactions:
(§7) The RT-qPCR reaction was performed using a QuantStudio (ThermoFisher) under the following fast cycling conditions. […]

For assay [2], the system named is MYB mRNA. Nature of the assay: Splicing RT-qPCR assay, MYB canonical (CJ) and alternative (AJ) junction mRNA. The conditions noted are these: Homo sapiens; for EC50: AC50 = 50% response in AJ mRNA increase. Here is the method:
as §1, §2, §3, §4, §5, §6, §7

The subject of assay [3] is HTT mRNA. As to the kind of experiment: Splicing RT-qPCR assay, HTT canonical (CJ) and alternative (AJ) junction mRNA. The conditions noted are these: Homo sapiens; for EC50: AC50 = 50% response in AJ mRNA increase. How it is done: as §1, §2, §3, §4, §5, §6, §7
Assay [4] has as its system SMN2 mRNA. As to the kind of experiment: Splicing RT-qPCR gene panel, SMN2 canonical junction (CJ) mRNA. The conditions noted are these: Homo sapiens; Table 8; larger gene panel, decrease in CJ mRNA levels. Here is the method: as §1, §2, §3, §4, §5, §6, §7
The mark [5] stands for this setting: Table 7, RT-qPCR, A673 or K562 cells, 24 hours treatment.
Where [6] appears, read: Table 7, IC50 = 50% response in CJ mRNA decrease, RT-qPCR, A673 or K562 cells, 24 hours treatment, read-out: MYB CJ.
Where [7] appears, read: Table 8, larger gene panel, decrease in CJ mRNA levels, read-out: MYB CJ IC50.
[8] abbreviates: Table 7, IC50 = 50% response in CJ mRNA decrease, RT-qPCR, A673 or K562 cells, 24 hours treatment, read-out: HTT CJ.
Setting [9] is: Table 8, larger gene panel, decrease in CJ mRNA levels, read-out: HTT CJ IC50.

In the case of `Cn1cc2ccc(-c3nc4sc(C5CCNCC5)cc4s3)cc2n1` [Compound 127, 2-methyl-6-[5-(piperidin-4-yl)thieno [2,3-d][1,3]thiazol-2-yl]indazole hydrochloride], the IC50 in assay [1], in assay [2] (setting [6]), in assay [2] (setting [7]), in assay [3] (setting [8]), in assay [3] (setting [9]) and in assay [4] was 1 to 10 µM each time. Also, the EC50 in assay [2] (setting [5]) and in assay [3] (setting [5]) was 1 to 10 µM in each case.

Consider `CC1CN(c2cc3sc(-c4cc(F)c5nn(C)cc5c4)nc3s2)CCN1C` (centres unmarked) [Compound 128, 5-[5-(3,4-dimethylpiperazin-1-yl)thieno[2,3-d][1,3]thiazol-2-yl]-7-fluoro-2-methylindazole], for which the IC50 in assay [1] is 1 to 10 µM; in assay [2] (setting [6]) it was 1 to 10 µM; in assay [2] (setting [7]), 1 to 10 µM; in assay [3] (setting [8]), 1 to 10 µM; in assay [3] (setting [9]), 1 to 10 µM; in assay [4], 0.1 to 1 µM. For the same compound, the EC50 in assay [2] (setting [5]) and in assay [3] (setting [5]) was 1 to 10 µM in each case.

On to `Cc1cn2cc(-c3nc4sc(C5CCNCC5)cc4s3)cc(F)c2n1` [Compound 130, 4-(2-[8-fluoro-2-methylimidazo[1,2-a]pyridin-6-yl]thieno[2,3-d][1,3]thiazol-5-yl)piperidine hydrochloride], for which the IC50 in assay [1], in assay [2] (setting [6]), in assay [2] (setting [7]), in assay [3] (setting [8]), in assay [3] (setting [9]) and in assay [4] was < 0.1 µM throughout. Moreover, the EC50 in assay [2] (setting [5]) and in assay [3] (setting [5]) was < 0.1 µM each time.

`Cn1cc2c(F)cc(-c3nc4sc(C5CCNCC5)cc4s3)cc2n1` [Compound 131, 4-fluoro-2-methyl-6-[5-(piperidin-4-yl)thieno[2,3-d][1,3]thiazol-2-yl]indazole]: the IC50 in assay [1], in assay [2] (setting [6]), in assay [2] (setting [7]), in assay [3] (setting [8]), in assay [3] (setting [9]) and in assay [4] was 1 to 10 µM each time. Moreover, the EC50 in assay [2] (setting [5]) and in assay [3] (setting [5]) was 1 to 10 µM in each case.

Regarding `Cc1nc2c(F)cc(-c3nc4sc(C5CCNCC5)cc4s3)cc2o1` [Compound 132, 4-fluoro-2-methyl-6-[5-(piperidin-4-yl)thieno[2,3-d][1,3]thiazol-2-yl]-1,3-benzoxazole], the IC50 in assay [1] is 0.1 to 1 µM; in assay [2] (setting [6]), 0.1 to 1 µM; in assay [2] (setting [7]), 0.1 to 1 µM; in assay [3] (setting [8]) it was 0.1 to 1 µM; in assay [3] (setting [9]), < 0.1 µM; in assay [4], 0.1 to 1 µM. For the same compound, the results for the EC50 in assay [2] (setting [5]) and in assay [3] (setting [5]) were 0.1 to 1 µM and < 0.1 µM, respectively.

On to `Cc1cn2nc(-c3nc4sc(C5CCNCC5)cc4s3)cc2c(C)n1` [Compound 133, 4-(2-[4,6-dimethylpyrazolo[1,5-a]pyrazin-2-yl]thieno[2,3-d][1,3]thiazol-5-yl)piperidine], for which the IC50 in assay [1], in assay [2] (setting [6]), in assay [2] (setting [7]), in assay [3] (setting [8]), in assay [3] (setting [9]) and in assay [4] was 0.1 to 1 µM each time. Besides, the EC50 in assay [2] (setting [5]) and in assay [3] (setting [5]) was 0.1 to 1 µM in each case.

For the compound `Cn1cc2cc(-c3nc4sc(N5CCNCC5)cc4s3)cc(F)c2n1` [Compound 134, 7-fluoro-2-methyl-5-[5-(piperazin-1-yl)thieno[2,3-d][1,3]thiazol-2-yl]indazole], the IC50 in assay [1] was 0.1 to 1 µM; in assay [2] (setting [6]), 0.1 to 1 µM; in assay [2] (setting [7]) it was 0.1 to 1 µM; in assay [3] (setting [8]), 0.1 to 1 µM; in assay [3] (setting [9]), < 0.1 µM; in assay [4] it was < 0.1 µM. The EC50 in assay [2] (setting [5]) was 0.1 to 1 µM; in assay [3] (setting [5]) it was < 0.1 µM.

As to `CC1CN(c2cc3sc(-c4cc(F)c5nn(C)cc5c4)nc3s2)CCN1` (centres unmarked) [Compound 135, 7-fluoro-2-methyl-5-[5-(3-methylpiperazin-1-yl)thieno[2,3-d][1,3]thiazol-2-yl]indazole], the IC50 in assay [1] was 0.1 to 1 µM; in assay [2] (setting [6]) it was 0.1 to 1 µM; in assay [2] (setting [7]) it was 0.1 to 1 µM; in assay [3] (setting [8]), 0.1 to 1 µM; in assay [3] (setting [9]), 0.1 to 1 µM; in assay [4], < 0.1 µM. In addition, the EC50 in assay [2] (setting [5]) and in assay [3] (setting [5]) was 0.1 to 1 µM each time.

Regarding `Cn1cc2cc(-c3nc4sc(N5CCNC6(CC6)C5)cc4s3)cc(F)c2n1` [Compound 136, 5-(5-[4,7-diazaspiro[2.5]octan-7-yl]thieno[2,3-d][1,3]thiazol-2-yl)-7-fluoro-2-methylindazole], the IC50 is > 10 µM in assay [1]; 1 to 10 µM in assay [2] (setting [6]); 0.1 to 1 µM in assay [2] (setting [7]); > 10 µM in assay [3] (setting [8]); > 10 µM in assay [3] (setting [9]); 0.1 to 1 µM in assay [4]. The EC50 in assay [2] (setting [5]) was 0.1 to 1 µM; in assay [3] (setting [5]), > 10 µM.

Take `CCNC1CCN(c2cc3sc(-c4cc(F)c5nn(C)cc5c4)nc3s2)CC1` [Compound 137, N-ethyl-1-[2-(7-fluoro-2-methylindazol-5-yl)thieno[2,3-d][1,3]thiazol-5-yl]piperidin-4-amine]: the IC50 in assay [1] is 0.1 to 1 µM; in assay [2] (setting [6]) it was 0.1 to 1 µM; in assay [2] (setting [7]) it was 0.1 to 1 µM; in assay [3] (setting [8]), 0.1 to 1 µM; in assay [3] (setting [9]), 0.1 to 1 µM; in assay [4] it was < 0.1 µM. Further, the EC50 in assay [2] (setting [5]) and in assay [3] (setting [5]) was 0.1 to 1 µM in each case.

With `Cc1cn2cc(-c3nc4sc(C5CCNCC5)cc4s3)cc(Cl)c2n1` [Compound 139], the IC50 in assay [1], in assay [2] (setting [6]), in assay [2] (setting [7]), in assay [3] (setting [8]), in assay [3] (setting [9]) and in assay [4] was < 0.1 µM in each case. In addition, the EC50 in assay [2] (setting [5]) and in assay [3] (setting [5]) was < 0.1 µM throughout.

On to `Cc1cn2cc(-c3nc4sc(C5CCNCC5)cc4s3)cc(C)c2n1` [Compound 140, 4-(2-[2,8-dimethylimidazo[1,2-a]pyridin-6-yl]thieno[2,3-d][1,3]thiazol-5-yl)piperidine hydrochloride], for which the IC50 in assay [1] is 0.1 to 1 µM; in assay [2] (setting [6]), 0.1 to 1 µM; in assay [2] (setting [7]), 0.1 to 1 µM; in assay [3] (setting [8]) it was < 0.1 µM; in assay [3] (setting [9]) it was < 0.1 µM; in assay [4], < 0.1 µM. Further, the EC50 was 0.1 to 1 µM in assay [2] (setting [5]) and < 0.1 µM in assay [3] (setting [5]).

`CN1CCN(c2cc3sc(-c4cc(F)c5nn(C)cc5c4)nc3s2)CC1` [Compound 141, 7-fluoro-2-methyl-5-[5-(4-methylpiperazin-1-yl)thieno[2,3-d][1,3]thiazol-2-yl]indazole]: the IC50 in assay [1] is 1 to 10 µM; in assay [2] (setting [6]), 0.1 to 1 µM; in assay [2] (setting [7]) it was 0.1 to 1 µM; in assay [3] (setting [8]), 0.1 to 1 µM; in assay [3] (setting [9]), 0.1 to 1 µM; in assay [4], < 0.1 µM. The EC50 in assay [2] (setting [5]) and in assay [3] (setting [5]) was 0.1 to 1 µM in each case.
